# Where “and” joins values, the source holds several entries; their conditions need not be identical. Equal entries are not always repeated. Structures can show the parent of a compound that is named as a salt.
# Legend:
# SARS-CoV-2 = experiment: microbe, parasite or virus in culture; format: functional, organism-based, Chlorocebus sabaeus, Vero C1008
# in vitro = conditions: chlorocebus sabaeus
# [1] = Severe acute respiratory syndrome coronavirus 2, Vero C1008, 48 h
# [2] = VERO-E6 cells (Vero C1008), uninfected, CC50
Compound,CC50 at 48 h (in vitro; [2]),also measured
CCN1CCC(n2cc(CNc3cc(Cl)c4ncc(C#N)c(Nc5ccc(F)c(Cl)c5)c4c3)nn2)CC1,–,IC50 (SARS-CoV-2; [1]): 16.6 µM
Cn1nc(C(C)(C)C)cc1C(=O)N[C@@H](Cc1cccc(Cl)c1)C(=O)NCC#N,0.03 µM,–
Cc1cccc(Nc2nc(-c3ccncc3)cs2)c1,31.5 µM,–
c1cncc(CN2CCC(n3ncc4c(N5CCOCC5)nc(-c5ccc6[nH]ccc6c5)nc43)CC2)c1,9.55 µM,–
O=C(O)Cc1cccc(OCCCN(Cc2cccc(C(F)(F)F)c2Cl)CC(c2ccccc2)c2ccccc2)c1,> 33 µM,–
O=C1Nc2cc(Br)ccc2/C1=C1/Nc2ccccc2/C1=N\O [6BIO],> 33 µM,–
Cc1cc(O[C@@H](CCC(F)(F)F)c2ccc(C(=O)NCCC(=O)O)cc2)cc(C)c1-c1ccc(C(C)(C)C)cc1 [ADOMEGLIVANT],> 33 µM,–
CCN1CCN(Cc2ccc(-c3cc4c(N[C@H](C)c5ccccc5)ncnc4[nH]3)cc2)CC1 [AEE-788],> 33 µM,IC50 (SARS-CoV-2; [1]): 3.94 µM
Nc1nc(N)c2nc(CNc3ccc(C(=O)N[C@@H](CCC(=O)O)C(=O)O)cc3)cnc2n1 [AMINOPTERIN],0.03 µM,–
CC(=O)[C@]1(N)Cc2c(O)c3c(c(O)c2[C@@H](O[C@H]2C[C@H](O)[C@H](O)CO2)C1)C(=O)c1ccccc1C3=O [AMRUBICIN],> 33 µM,IC50 (SARS-CoV-2; [1]): 0.33 µM
Oc1c(Cl)cc(Cl)cc1Sc1cc(Cl)cc(Cl)c1O [BITHIONOL],9.94 µM,–
C[C@H]1CCC/C=C/[C@@H]2C[C@H](O)C[C@H]2[C@H](O)/C=C/C(=O)O1 [BREFELDIN A],0.06 µM,–
Nc1nc(NC[C@H]2CC[C@H](CNS(=O)(=O)c3cccc4ccccc34)CC2)nc2ccccc12 [CGP-71683A],4.38 µM,–
CC(C)C(=O)OCC(=O)[C@@]12O[C@H](C3CCCCC3)O[C@@H]1C[C@H]1[C@@H]3CCC4=CC(=O)C=C[C@]4(C)[C@H]3[C@@H](O)C[C@@]12C [CICLESONIDE],–,IC50 (SARS-CoV-2; [1]): > 33 µM
CCN(CC)CCOc1ccc(C(=C(Cl)c2ccccc2)c2ccccc2)cc1 [CLOMIPHENE CITRATE],–,"CC50 at 48 h (in vitro; vero c1008, CC50): > 33 µM"
C[C@@H]1C[C@@H]([C@H](O)CC2CC(=O)NC(=O)C2)C(=O)[C@@H](C)C1 [CYCLOHEXIMIDE],10.2 µM,–
COc1ccc2cc1Oc1ccc(cc1)C[C@H]1c3cc(c(OC)cc3CCN1C)Oc1c(OC)c(OC)cc3c1[C@H](C2)N(C)CC3 [FANCHININ],> 33 µM,–
COc1ccccc1[C@H](Cn1c(=O)n(C(C)(C)C(=O)O)c(=O)c2c(C)c(-c3ncco3)sc21)OC1CCOCC1 [FIRSOCOSTAT],0.11 µM,–
CC(C)(C)NCc1ccc(Nc2ccnc3cc(Cl)ccc23)cc1O [GSK-369796],12.4 µM,–
CCCCN(CCCC)CCC(O)c1cc2c(Cl)cc(Cl)cc2c2cc(C(F)(F)F)ccc12 (stereo unspecified) [HALOFANTRINE],> 33 µM,–

Compound,CC50 at 48 h (in vitro; [2]),also measured
CN(C)C(=O)C(CCN1CCC(O)(c2ccc(Cl)cc2)CC1)(c1ccccc1)c1ccccc1 [LOPERAMIDE],> 33 µM,–
Cn1cc(-c2ccncc2)c(-c2ccc(OCc3ccc4ccccc4n3)cc2)n1 [MARDEPODECT],> 33 µM,–
Cc1ccc(NC(=O)c2ccc(CN3CCN(C)CC3)cc2)cc1Nc1nc(-c2cccnc2)cs1 [MASITINIB],> 33 µM,–
Cc1nc(N)nc(N)c1-c1ccc(Cl)c(Cl)c1 [METOPRINE],0.12 µM,–
CC[C@@]1([C@H]2O[C@H]([C@H]3O[C@@](O)(CO)[C@H](C)C[C@@H]3C)C[C@H]2C)CC[C@H]([C@@]2(C)CC[C@]3(C[C@H](O)[C@@H](C)[C@@H]([C@H](C)[C@H](OC)[C@@H](C)C(=O)O)O3)O2)O1 [MONENSIN SODIUM],–,IC50 (SARS-CoV-2; [1]): 3.18 µM
COc1c(C)c2c(c(O)c1C/C=C(\C)CCC(=O)O)C(=O)OC2 [MYCOPHENOLIC ACID],–,IC50 (SARS-CoV-2; vero c1008): 3.43 µM and 11.1 µM and > 33 µM
Cc1c(O)cccc1C(=O)N[C@@H](CSc1ccccc1)[C@H](O)CN1C[C@H]2CCCC[C@H]2C[C@H]1C(=O)NC(C)(C)C [NELFINAVIR MESYLATE],> 33 µM,–
COc1ccc2c(c1)[C@]1(C[C@H]1c1ccc3c(/C=C/c4ccc(CN5C[C@@H](C)O[C@@H](C)C5)cc4)n[nH]c3c1)C(=O)N2 [OCIFISERTIB],> 33 µM,–
Cc1[nH]c(/C=C2\C(=O)Nc3ccc(S(=O)(=O)Cc4c(Cl)cccc4Cl)cc32)c(C)c1C(=O)N1CCC[C@@H]1CN1CCCC1 [PHA-665752],> 33 µM,–
C#CCC(Cc1cnc2nc(N)nc(N)c2n1)c1ccc(C(=O)N[C@@H](CCC(=O)O)C(=O)O)cc1 (stereo partly specified) [PRALATREXATE],–,IC50 (SARS-CoV-2; [1]): 0.06 µM
Nc1ccc2cc3ccc(N)cc3nc2c1 [PROFLAVINE],2.67 µM,–
Cn1c(Nc2ccc(C(F)(F)F)cc2)nc2cc(Oc3ccnc(-c4ncc(C(F)(F)F)[nH]4)c3)ccc21 [RAF-265],9.19 µM,–
CC(C)(Sc1cc(C(C)(C)C)c(O)c(C(C)(C)C)c1)Sc1cc(C(C)(C)C)c(OC(=O)CCC(=O)O)c(C(C)(C)C)c1 [SUCCINOBUCOL],10.2 µM,–
COc1cc2c(N3CCN(C(=O)Nc4ccc(OC(C)C)cc4)CC3)ncnc2cc1OCCCN1CCCCC1 [TANDUTINIB],> 33 µM,–
Nc1nc2c(ncn2[C@@H]2O[C@H](CO)[C@@H](O)[C@H]2O)c(=S)[nH]1 [THIOGUANOSINE],> 33 µM,–
CCN(CC)CCOc1ccc2c(c1)C(=O)c1cc(OCCN(CC)CC)ccc1-2 [TILORONE],3.08 µM,–
O=C(Nc1ccc(Cl)cc1)Nc1ccc(Cl)c(Cl)c1 [TRICLOCARBAN],3.08 µM,–
CN1CCN(CCCN2c3ccccc3Sc3ccc(C(F)(F)F)cc32)CC1 [TRIFLUOPERAZINE HYDROCHLORIDE],> 33 µM,–
COc1cc(NCc2ccc3nc(N)nc(N)c3c2C)cc(OC)c1OC [TRIMETREXATE],1.99 µM,–

# From ChEMBL document CHEMBL4495565, “Cytopathic SARS-Cov2 screening on VERO-E6 cells in a large repurposing effort” (2020)
